Values of other authors, collected in patent US20250205347A1, “METHODS FOR TREATING INFLAMMATORY CONDITIONS OF THE EYE WITH AN IGF-1R LIGAND CONJUGATED TO A DISEASE-MODIFYING AGENT” (Lirum Therapeutics, Inc., priority 2022, published 2025).

B1: IGF132: IGF-1 variant (SEQ ID NO:4): first 17 amino acids of insulin B chain replace first 16 amino acids of human IGF-1 (protein)
chain: FVNQHLCGSHLVEALYLVCGDRGFYFNKPTGYGSSSRRAPQTGIVDECCFRSCDLRRLEMYCAPLKPAKSA

Key:
IGFBPs = conditions: known in the art (U.S. Pat. No. 4,876,242; Francis et al. 1992)
IGF-1R = IGF-1R (Homo sapiens, UniProt P08069); conditions: relative to IGF-1 / IGF-2; Hakuno et al. 2018
IGF-1R, sequence (P08069 31-736 limits assumed, species assumed): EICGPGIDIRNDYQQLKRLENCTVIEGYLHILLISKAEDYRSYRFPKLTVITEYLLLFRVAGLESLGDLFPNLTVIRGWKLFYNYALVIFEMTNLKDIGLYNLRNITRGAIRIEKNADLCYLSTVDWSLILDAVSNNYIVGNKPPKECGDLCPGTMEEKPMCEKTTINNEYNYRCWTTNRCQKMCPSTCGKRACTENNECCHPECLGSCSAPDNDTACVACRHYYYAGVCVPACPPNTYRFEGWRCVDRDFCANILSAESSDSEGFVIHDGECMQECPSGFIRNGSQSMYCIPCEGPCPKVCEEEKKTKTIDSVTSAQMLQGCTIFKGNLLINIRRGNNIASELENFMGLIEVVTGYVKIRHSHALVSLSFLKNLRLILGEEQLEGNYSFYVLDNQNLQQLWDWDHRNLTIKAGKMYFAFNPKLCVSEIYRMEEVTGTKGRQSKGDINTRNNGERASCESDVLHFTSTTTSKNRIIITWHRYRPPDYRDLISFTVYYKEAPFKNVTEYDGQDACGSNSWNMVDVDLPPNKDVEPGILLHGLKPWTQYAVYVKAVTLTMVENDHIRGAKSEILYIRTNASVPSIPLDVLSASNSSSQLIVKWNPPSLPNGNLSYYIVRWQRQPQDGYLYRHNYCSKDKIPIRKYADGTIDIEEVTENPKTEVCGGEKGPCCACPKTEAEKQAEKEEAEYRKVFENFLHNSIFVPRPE
IGF-1R, sequence (P08069 741-1367 partner limits assumed, species assumed): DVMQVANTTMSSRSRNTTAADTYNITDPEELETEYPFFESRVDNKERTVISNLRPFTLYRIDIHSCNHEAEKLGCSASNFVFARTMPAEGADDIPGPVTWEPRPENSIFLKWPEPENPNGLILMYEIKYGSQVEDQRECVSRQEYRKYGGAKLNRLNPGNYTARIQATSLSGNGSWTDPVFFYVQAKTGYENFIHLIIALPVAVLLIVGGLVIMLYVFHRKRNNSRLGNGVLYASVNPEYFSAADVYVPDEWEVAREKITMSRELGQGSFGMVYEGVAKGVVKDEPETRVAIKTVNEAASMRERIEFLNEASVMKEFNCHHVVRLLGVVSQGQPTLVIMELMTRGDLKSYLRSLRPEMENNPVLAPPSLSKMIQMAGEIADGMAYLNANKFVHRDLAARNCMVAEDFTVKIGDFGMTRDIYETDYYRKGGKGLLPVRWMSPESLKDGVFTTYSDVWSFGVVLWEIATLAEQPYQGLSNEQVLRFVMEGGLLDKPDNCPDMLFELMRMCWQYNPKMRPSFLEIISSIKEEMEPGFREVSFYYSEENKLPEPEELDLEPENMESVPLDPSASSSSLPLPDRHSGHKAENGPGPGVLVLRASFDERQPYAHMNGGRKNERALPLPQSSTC

Molecule	binding affinity for IGFBPs as compared to wildtype IGF-1 (IGFBPs)	affinity of IGF-1R for the ligand, fold lower (IGF-1R)
R3-IGF-1: IGF-1 variant (SEQ ID NO:6): glutamic acid in position 3 of human IGF-1 substituted by arginine	reduced binding affinity for IGFBPs	
des(1-3) IGF-1: IGF-1 variant (SEQ ID NO:7) lacking the first three amino acids of human IGF-1	reduced binding affinity for IGFBPs	
insulin: native IGF-1R ligand; mature human insulin, chain A SEQ ID NO:10 and chain B SEQ ID NO:11		50-to 100 fold
B1	reduced binding affinity for IGFBPs	
